System: KRAS-mutant PDC complex spheroid viability
Test: Anticancer human tumor 186277-243-T-J2-PDC patient-derived colon adenocarcinoma cell line growth inhibition [KRAS2]
Conditions: for viability, T/C: stronger effect = lower value
Description: Multicellular complex tumor spheroid response to RAS pathway inhibitors in combination with a targeted agents in patient-derived cell lines with oncogenic KRAS variants from multiple cancer types
A high-throughput screen of multi-cell type tumor spheroids was designed to identify active combinations of targeted small molecules and KRAS pathway inhibitors. Complex spheroids include a stromal component modeled by human endothelial cells (HUVEC) and fibroblasts modeled by human mesenchymal stem cells (MSCs). The concentration ranges selected for each drug and investigational agent were based upon clinically achievable concentrations if the clinical Cmax of the agent was known.
Compounds. The drugs and investigational agents: BI-3406 (NSC825286), BAY-293 (NSC824723), batoprotafib (TNO155; NSC825523), sotorasib (AMG 510; NSC818433), MRTX1257 (NSC819558), elimusertib (BAY 1895344; NSC800525), molibresib (GSK525762; NSC774829), temuterkib (LY3214996; NSC803410), venetoclax (NSC766270), alisertib (NSC759677), olaparib (NSC753686), talazoparib (NSC767125), erdafitinib (NSC781556), ipatasertib (NSC767898), cabozantinib (NSC761068), nintedanib (NSC756659), abemaciclib (NSC768073), docetaxel (NSC628503), trametinib (NSC758246), and sapanisertib (NSC764658) were obtained from the National Cancer Institute (NCI) Developmental Therapeutics Program Chemical Repository. The FDA-approved anticancer drug set is available from the Developmental Therapeutics Program. […] The stock solutions were prepared in dimethyl sulfoxide (DMSO, Sigma-Aldrich, St. Louis, MO, cat. D2650) at 800-fold the tested concentration and stored at -70 degrees C prior to their use. All drugs and investigational agents were tested over a range starting from a high concentration at or near the clinical Cmax and decreasing in half-log increments. If the clinical Cmax for an agent had not been determined, the highest concentration tested was 10 microM.
Cell Culture. All cells were maintained in an incubator at 37 degrees C and 5% CO2 with 95% humidity. The PDC lines were cultured according to standard operating procedures established by the NCI PDMR (https://pdmr.cancer.gov/sops/default.htm). Briefly, all PDCs were thawed and cultured in Matrigel-coated flasks prepared with a working solution of 1X Ham's F-12 nutrient mix, without supplementation (Invitrogen, Waltham, MA, cat. 11765054), 100 U/mL penicillin-streptomycin (Invitrogen, cat. 15140122), and 2.5% Matrigel (Corning Inc., Corning, NY, cat. 354248) for the first three passages. All PDCs were cultured in complete DMEM/F-12 media containing advanced DMEM/F-12 (Invitrogen, cat. 12634028), 4.9% defined fetal bovine serum, heat inactivated (HyClone Laboratories Inc., Logan, UT, cat. SH30070.03HI), 389 ng/mL hydrocortisone (Sigma-Aldrich, cat. H4001), 9.7 ng/mL human EGF recombinant protein (Invitrogen, cat. PHG0313), 23.4 microg/mL adenine (Sigma-Aldrich, cat. A2786), 97.3 U/mL penicillin-streptomycin (Invitrogen, cat. 15140122), 1.9 mM L-glutamine (Invitrogen, cat. 25030081), and 9.7 microM Y-27632 dihydrochloride (Tocris Bioscience, Bristol, United Kingdom, cat. 1254). The PDCs were cultured in complete DMEM/F12 media without 9.7 microM Y-27632 dihydrochloride for at least two passages prior to the screen. The established cell line HOP-62 was cultured in RPMI 1640 medium, HEPES (Invitrogen, cat. 22400105) with 10% defined fetal bovine serum (HyClone Laboratories Inc., cat. SH30070.03) and 2 mM L-glutamine (Invitrogen, cat. 25030081). The pooled donor HUVEC were cultured in endothelial cell growth medium 2 (PromoCell, Heidelberg, Germany, cat. C-22011) and the hMSC were cultured in mesenchymal stem cell growth medium 2 (PromoCell, cat. C-28009). For all experiments, HUVEC and hMSC were used at passages </=5, while the malignant cell lines were used at passages </=15. […]

[1] = curve of first compound, second compound 0.1 µM
[2] = curve of first compound, second compound 0.316 µM
[3] = curve of first compound, second compound 1 µM
[4] = curve of first compound, second compound 3.16 µM
[5] = curve of first compound, second compound 10 µM
[6] = second compound 0.1 µM, first compound 0.0316 µM
[7] = second compound 0.1 µM, first compound 0.1 µM
[8] = second compound 0.1 µM, first compound 0.316 µM
[9] = second compound 0.1 µM, first compound 1 µM
[10] = second compound 0.1 µM, first compound 3.16 µM
[11] = second compound 0.1 µM, first compound 10 µM
[12] = second compound 0.316 µM, first compound 0.0316 µM
[13] = second compound 0.316 µM, first compound 0.1 µM
[14] = second compound 0.316 µM, first compound 0.316 µM
[15] = second compound 0.316 µM, first compound 1 µM
[16] = second compound 0.316 µM, first compound 3.16 µM
[17] = second compound 0.316 µM, first compound 10 µM
[18] = second compound 1 µM, first compound 0.0316 µM
[19] = second compound 1 µM, first compound 0.1 µM
[20] = second compound 1 µM, first compound 0.316 µM
[21] = second compound 1 µM, first compound 1 µM
[22] = second compound 1 µM, first compound 3.16 µM
[23] = second compound 1 µM, first compound 10 µM
[24] = second compound 3.16 µM, first compound 0.0316 µM
[25] = second compound 3.16 µM, first compound 0.1 µM
[26] = second compound 3.16 µM, first compound 0.316 µM
[27] = second compound 3.16 µM, first compound 1 µM
[28] = second compound 3.16 µM, first compound 3.16 µM
[29] = second compound 3.16 µM, first compound 10 µM
[30] = second compound 10 µM, first compound 0.0316 µM
[31] = second compound 10 µM, first compound 0.1 µM
[32] = second compound 10 µM, first compound 0.316 µM
[33] = second compound 10 µM, first compound 1 µM
[34] = second compound 10 µM, first compound 3.16 µM
[35] = second compound 10 µM, first compound 10 µM
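For viability, T/C in this document: viability read after seven days of compound exposure; 100% = DMSO vehicle-treated spheroids so lower means less viable.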

Compound	IC50 [1] [nM]	IC50 [2] [nM]	IC50 [3] [nM]	IC50 [4] [nM]	IC50 [5] [nM]	viability, T/C [6] [%]	viability, T/C [7] [%]	viability, T/C [8] [%]	viability, T/C [9] [%]	viability, T/C [10] [%]	viability, T/C [12] [%]	viability, T/C [13] [%]	viability, T/C [14] [%]	viability, T/C [15] [%]	viability, T/C [16] [%]	viability, T/C [18] [%]	viability, T/C [19] [%]	viability, T/C [20] [%]	viability, T/C [21] [%]	viability, T/C [22] [%]	further results
C=CC(=O)N1CCN(c2nc(OCC3CCCN3C)nc3c2CCN(c2cccc4cccc(C)c24)C3)CC1CC#N (centres undefined)																					viability, T/C (compound 0.0316 µM): 98.9% [middle of 16 runs]; IC50 (compound alone, run of 07/19/2021): 1.82 µM [middle of 4 runs]; IC50 (compound alone, run of 07/26/2021): 1.75 µM [middle of 5 runs]
CC(C)NCC(C(=O)N1CCN(c2ncnc3c2C(C)CC3O)CC1)c1ccc(Cl)cc1 (centres undefined) + CC1OCC2(CCN(c3cnc(Sc4ccnc(N)c4Cl)c(N)n3)CC2)C1N	498	389	268	134	57.2	110	98.2	55.2	34.9	25.7	134	96.9	54.3	26.5	17.3	115	94	41.5	16	10.7	viability, T/C [11]: 9.35%; viability, T/C [17]: 7.17%; viability, T/C [23]: 4.01%; viability, T/C [24]: 86.5%; viability, T/C [25]: 58.3%; viability, T/C [26]: 25.6%; viability, T/C [27]: 8.57%; viability, T/C [28]: 3.93%; viability, T/C [29]: 2.37%; viability, T/C [30]: 65.1%; viability, T/C [31]: 35.8%; viability, T/C [32]: 9.46%; viability, T/C [33]: 3.07%; viability, T/C [34]: 1.79%; viability, T/C [35]: 1.34%
COc1cc2nccc(Oc3ccc(NC(=O)C4(C(=O)Nc5ccc(F)cc5)CC4)cc3)c2cc1OC + COc1cc2nc(C)nc(NC(C)c3cc(N)cc(C(F)(F)F)c3)c2cc1OC1CCOC1	882	866	779	726	187	98.2	112	114	12.5	15.8	105	102	97.8	13.9	13.5	108	108	82.2	11.3	10.7	viability, T/C [11]: 101%; viability, T/C [17]: 102%; viability, T/C [23]: 101%; viability, T/C [24]: 114%; viability, T/C [25]: 114%; viability, T/C [26]: 80.7%; viability, T/C [27]: 9.28%; viability, T/C [28]: 1.53%; viability, T/C [29]: 104%; viability, T/C [30]: 92.2%; viability, T/C [31]: 66.9%; viability, T/C [32]: 39.4%; viability, T/C [33]: 1.55%; viability, T/C [34]: 0.17%; viability, T/C [35]: 89%
CCNC(=O)CC1N=C(c2ccc(Cl)cc2)c2cc(OC)ccc2-n2c(C)nnc21 (centres undefined) + CC1OCC2(CCN(c3cnc(Sc4ccnc(N)c4Cl)c(N)n3)CC2)C1N	5830	1050	338	155	51	92.5	104	144	92.7	66	108	121	103	50.6	26.5	97.6	128	52.2	16.2	14	viability, T/C [11]: 37%; viability, T/C [17]: 16.8%; viability, T/C [23]: 8.15%; viability, T/C [24]: 109%; viability, T/C [25]: 67.8%; viability, T/C [26]: 20.9%; viability, T/C [27]: 7.45%; viability, T/C [28]: 4.82%; viability, T/C [29]: 4.45%; viability, T/C [30]: 64.2%; viability, T/C [31]: 30%; viability, T/C [32]: 9.5%; viability, T/C [33]: 4.12%; viability, T/C [34]: 3.89%; viability, T/C [35]: 2.6%
CC1COCCN1c1cc(-c2ccnn2C)c2ccnc(-c3ccn[nH]3)c2n1 (centres undefined) + C=CC(=O)N1CCN(c2nc(=O)n(-c3c(C)ccnc3C(C)C)c3nc(-c4c(O)cccc4F)c(F)cc23)C(C)C1	22	22.6	17.9	17	< 10	32.6	5.89	4.33	3.67	4.31	31.5	6.35	4.65	3.68	4.54	24.2	7.17	5.13	4.4	5.82	viability, T/C (second compound 0.1 µM, first compound 0.01 µM): 87.5%; viability, T/C (second compound 0.316 µM, first compound 0.01 µM): 94.6%; viability, T/C (second compound 3.16 µM, first compound 0.01 µM): 79.5%; viability, T/C [24]: 15.3%; viability, T/C [25]: 7.75%; viability, T/C [26]: 5.93%; viability, T/C [27]: 6.25%; viability, T/C [28]: 8.7%; viability, T/C (second compound 10 µM, first compound 0.01 µM): 19.3%; viability, T/C [30]: 11.3%; viability, T/C [31]: 9.23%; viability, T/C [32]: 8.93%; viability, T/C [33]: 11.2%; viability, T/C [34]: 14.7%
COc1cc(Nc2ncc3c(n2)-c2ccc(Cl)cc2C(c2c(F)cccc2OC)=NC3)ccc1C(=O)O																					viability, T/C (compound 0.0316 µM): 37.6% [middle of 5 runs]; viability, T/C (compound 0.1 µM): 34.1% [middle of 5 runs]; viability, T/C (compound 0.316 µM): 33.4% [middle of 5 runs]; viability, T/C (compound 1 µM): 37% [middle of 5 runs]; viability, T/C (compound 3.16 µM): 46.8% [middle of 5 runs]; viability, T/C (compound 10 µM): 50.4% [middle of 5 runs]; IC50 (curve of compound): < 31.6 nM

Source: PubChem BioAssay AID1963875 (Molecular Pharmacology Branch, DTP, NCI, 2024)
